Reference: patent publication US11857513B2, “Selective inhibitor of exon 20 insertion mutant EGFR” (Taiho Pharmaceutical Co., Ltd., priority 2016, dated 2024)

Experiments:
H1975-EGFRinsSVD cells [1] = assay: Antitumor effect, nude rats subcutaneously transplanted with H1975-EGFRinsSVD cells; type: in vivo; conditions: 14 days; for T/C (%) on the final evaluation day: H1975 EGFRinsSVD
Excerpt: Nude rats were subcutaneously transplanted with H1975-EGFRinsSVD cells into which human mutant EGFR was introduced. […] The rats were then orally administered compound A once daily for 14 consecutive days.

[2] = target: T1, EGFR with mutation D770_N771insSVD (Homo sapiens, UniProt P00533, INS770SVD); assay: Phosphorylated EGFR inhibitory activity in H1975-EGFRinsSVD cells (Simple Western); type: cell-based
T1 construct: expressed in transfected cells; host or cells: NCI-H1975 (human lung adenocarcinoma), PiggyBac PB-CMV-MCS-EF1-RFP+Puro vector, endogenous EGFR (T790M/L858R) knocked out by TALEN
Experimental: A431 cells, which are human epithelial cancer cell lines overexpressing wild-type EGFR and H1975-EGFRinsSVD cells, which are human pulmonary adenocarcinoma cell lines expressing EGFR with mutation D770_N771insSVD by gene modification, were suspended in respective mediums. These cell suspensions were individually seeded into a 60-mm dish, and incubated in a 5% CO2-containing incubator at 37° C. for 1 day. Compound A was dissolved in DMSO, and diluted with DMSO such that the test compound has a concentration 1000 times higher than the final concentration. The DMSO solution of the test compound was diluted with each medium used for suspending the cells, and each diluted solution was added to respective culture dishes of the cells such that DMS 0 has a final concentration of 0.1%, followed by incubation in a 5% CO2-containing incubator at 37° C. for 6 hours. […] The concentration of the proteins were measured using a BCA protein assay kit (Thermo Fisher Scientific), and each sample was adjusted so as to have a protein concentration suitable for measurement of phosphorylated EGFR expression. The phosphorylated EGFR expression was measured using a Simple Western (trademark) assay system […]
Additionally, the selectivity for wild-type EGFR and EGFR exon 20 insertion mutation was calculated using the following formula. […]

H1975-EGFRinsSVD cells [3] = assay: Antitumor effect, nude mice subcutaneously transplanted with H1975-EGFRinsSVD cells; type: in vivo, mouse; conditions: 200 mg/kg orally once daily, 14 days
Experimental: Nude mice were subcutaneously transplanted with NIH3T3-EGFRinsASV cells, NIH3T3-EGFRinsSVD cells, or H1975-EGFRinsSVD cells to which human mutant EGFR was introduced. At the point at which the tumor volume of the tumor engrafted in the nude mice grew to about 100 to 200 mm^3, the mice were allocated into groups, 5 to 6 mice for each group, by stratified randomization such that the average tumor volume between the groups was uniform.
The maximum tolerated dose was determined in accordance with the “Guidelines Involving Experimental Neoplasia Proposals in Mice and Rats” of the National Cancer Institute (NCI), from a humanitarian perspective.
To compare the changes in growth of tumor over time due to administration of the individual test compounds, a relative tumor volume (which hereinafter also referred to as “RTV”) was calculated based on the tumor volume at the time the mice were divided into groups (which is taken as 1 for the tumor growth ratio), using the following formula. For a toxicity index, the body weight was measured over time, and the average body weight change (which hereinafter also referred to as “BWC (%)”) from the day on which the mice were divided into groups was calculated in accordance with the following formula.
RTV=(the tumor volume on the day a tumor volume was measured)/(the tumor volume on the day mice were divided into groups) […]

T1 sequence (P00533 with tags, fused parts or gaps INS770SVD): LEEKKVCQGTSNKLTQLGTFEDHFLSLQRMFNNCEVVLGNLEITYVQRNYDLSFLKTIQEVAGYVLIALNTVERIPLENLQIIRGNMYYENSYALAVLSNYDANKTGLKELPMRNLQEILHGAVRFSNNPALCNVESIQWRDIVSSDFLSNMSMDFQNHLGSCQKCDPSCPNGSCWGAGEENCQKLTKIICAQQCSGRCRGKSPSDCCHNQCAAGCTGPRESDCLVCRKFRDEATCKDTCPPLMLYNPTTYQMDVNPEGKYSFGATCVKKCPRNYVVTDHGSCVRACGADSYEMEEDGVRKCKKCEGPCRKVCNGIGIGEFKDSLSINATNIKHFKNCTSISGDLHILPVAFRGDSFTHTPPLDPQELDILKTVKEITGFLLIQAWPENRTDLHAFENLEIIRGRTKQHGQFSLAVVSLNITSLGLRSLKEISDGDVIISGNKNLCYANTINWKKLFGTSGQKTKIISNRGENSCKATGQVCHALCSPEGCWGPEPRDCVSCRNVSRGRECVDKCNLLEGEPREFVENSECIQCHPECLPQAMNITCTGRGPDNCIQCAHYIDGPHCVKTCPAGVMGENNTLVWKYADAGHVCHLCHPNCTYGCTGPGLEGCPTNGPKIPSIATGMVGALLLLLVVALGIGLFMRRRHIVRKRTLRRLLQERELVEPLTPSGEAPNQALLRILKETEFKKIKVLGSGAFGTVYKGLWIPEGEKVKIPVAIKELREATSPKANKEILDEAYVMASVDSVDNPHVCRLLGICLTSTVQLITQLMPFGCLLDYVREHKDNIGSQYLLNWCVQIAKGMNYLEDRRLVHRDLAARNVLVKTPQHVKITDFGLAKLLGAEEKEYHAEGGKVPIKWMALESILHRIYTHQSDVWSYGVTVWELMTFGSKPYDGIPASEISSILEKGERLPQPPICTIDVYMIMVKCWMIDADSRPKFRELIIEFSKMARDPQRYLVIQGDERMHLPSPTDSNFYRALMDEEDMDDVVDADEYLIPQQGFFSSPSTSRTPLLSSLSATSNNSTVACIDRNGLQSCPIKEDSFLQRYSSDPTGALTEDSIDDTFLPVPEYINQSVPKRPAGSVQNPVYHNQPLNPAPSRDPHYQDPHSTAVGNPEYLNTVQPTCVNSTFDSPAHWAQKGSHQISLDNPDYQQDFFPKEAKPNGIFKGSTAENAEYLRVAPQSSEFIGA

## C=CC(=O)N[C@H]1C=C(C)c2c(-c3cnc4ccccc4c3)c3c(N)ncnc3n2C1 [Compound A, (S)—N-(4-amino-6-methyl-5-(quinolin-3-yl)-8,9-dihydropyrimido[5,4-b]indolizin-8-yl)acrylamide]
H1975-EGFRinsSVD cells [1]; 20 or 40 mg/kg/day orally
  body weight loss: did not show serious weight loss
H1975-EGFRinsSVD cells [1]; 20 mg/kg orally once daily
  T/C (%) on the final evaluation day: 7%
H1975-EGFRinsSVD cells [1]; 40 mg/kg orally once daily
  T/C (%) on the final evaluation day: 3%
[2]; H1975-EGFRinsSVD cells, 6 hours, Tyr1068
  IC50: 23 nM
[2]; phosphorylated EGFR
  IC50 Ratio=IC50 (A431)/IC50 (H1975 EGFRinsSVD): 23.3
H1975-EGFRinsSVD cells [3]
  T/C (%) on the final evaluation day: 6%
